Results taken from patent US20020137929A1, “1 - (3-heterocyclylphenyl) isothiourea, -isourea, -guanidine and -amidine herbicidal agents” (Intellectual Property Department, BASF Aktiengesellschaft, priority 1998, published 2002).

How the values were obtained:
MOOVA (Monochoria) = test: Postemergence weed control under flooded paddy conditions; type: in vivo, Monochoria vaginalis; conditions: postemergence weeds, rated 3 to 4 weeks after treatment
Outline: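 Containers holding 3–5 cm weeds and rice at 1.5–2.5 leaves are flooded to 1.5–3 cm above soil. Compound in 50/50 v/v aqueous/acetone is then added directly to the water, about 0.0313–0.500 kg/ha. Plants are kept in the greenhouse and rated 0–9 visually at 3–4 weeks.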

[1] = system: IPOHE (Morningglory, Ivyleaf); test: Postemergence herbicidal evaluation; type: in vivo, Ipomoea hederacea; conditions: for IPOHE herbicidal rating: postemergence
Outline: (§1)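 ~2-wk seedlings; postemergence spray, 40 psi; vehicle 1:1 acetone:water + 0.5% Tween 20; rate ≈0.0156–0.500 kg/ha; greenhouse hold; scored 4–5 wk after treatment, 0–9 scale vs control; repeat tests averaged.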

[2] = system: CHEAL (Lambsquarters, Common); test: Postemergence herbicidal evaluation; type: in vivo, Chenopodium album; conditions: for CHEAL herbicidal rating: postemergence
Outline: as §1

[3] = system: GLXMAW (Soybean, Williams); test: Preemergence herbicidal evaluation; type: in vivo, Glycine max, (L.) Merr. cv Williams; conditions: rated 4-5 weeks after treatment; for GLXMAW rating: preemergence, 0-9 scale
Outline: (§2)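 Preemergence soil application of compound, sprayed in aqueous acetone at rates equivalent to about 0.0156 to 0.500 kg per hectare onto freshly sown cups. Plant response was judged by eye on a 0-9 scale four to five weeks later.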

ECHCG (Barnyardgrass) = test: Preemergence herbicidal evaluation; type: in vivo, Echinochloa crus-galli; conditions: rated 4-5 weeks after treatment; for ECHCG rating: preemergence, 0-9 scale
Outline: as §2

GALAP (Galium) = test: Preemergence herbicidal evaluation; type: in vivo, Galium aparine; conditions: rated 4-5 weeks after treatment; for GALAP rating: preemergence, 0-9 scale
Outline: as §2

SMILES: CCOC(=O)CN1C(=O)C(CC(=O)OC(C)C)SC1=Nc1cc(-n2c(=O)cc(C(F)(F)F)n(C)c2=O)c(F)cc1Cl (stereo not shown) [Compound 60, 2-{{2-Chloro-5-[3,6-dihydro-3-methyl-2,6-dioxo-4-(trifluoromethyl)-1(2H)-pyrimidinyl]-4-fluoro-phenyl}imino}-4-oxo-3,5-thiazolidinediacetic acid, 3-ethyl isopropyl ester]
- Herbicidal rating MOOVA (MOOVA (Monochoria); Rate 0.0313 kg/ha): 9.0
- Herbicidal rating MOOVA (MOOVA (Monochoria); Rate 0.0625 kg/ha): 9.0
- Herbicidal rating MOOVA (MOOVA (Monochoria); Rate 0.1250 kg/ha): 9.0
- Herbicidal rating MOOVA (MOOVA (Monochoria); Rate 0.2500 kg/ha): 9.0
- Postemergence herbicidal rating IPOHE ([1]; Rate 0.0158 kg/ha): 9.0
- Postemergence herbicidal rating IPOHE ([1]; Rate 0.0315 kg/ha): 9.0
- Postemergence herbicidal rating IPOHE ([1]; Rate 0.0630 kg/ha): 9.0
- Postemergence herbicidal rating CHEAL ([2]; Rate 0.0158 kg/ha): 4.0
- Postemergence herbicidal rating CHEAL ([2]; Rate 0.0315 kg/ha): 4.0
- Postemergence herbicidal rating CHEAL ([2]; Rate 0.0630 kg/ha): 9.0
- Preemergence herbicidal rating GLXMAW ([3]; rate 0.0156 kg/ha): 1.0
- Preemergence herbicidal rating GLXMAW ([3]; rate 0.0313 kg/ha): 0.5
- Preemergence herbicidal rating GLXMAW ([3]; rate 0.0625 kg/ha): 1.5
- Preemergence herbicidal rating GLXMAW ([3]; rate 0.1250 kg/ha): 3.0
- Preemergence herbicidal rating GLXMAW ([3]; rate 0.2500 kg/ha): 3.5
- Preemergence herbicidal rating GLXMAW ([3]; rate 0.5000 kg/ha): 6.0
- Preemergence herbicidal rating ECHCG (ECHCG (Barnyardgrass); rate 0.0156 kg/ha): 0.0
- Preemergence herbicidal rating ECHCG (ECHCG (Barnyardgrass); rate 0.0313 kg/ha): 0.0
- Preemergence herbicidal rating ECHCG (ECHCG (Barnyardgrass); rate 0.0625 kg/ha): 0.0
- Preemergence herbicidal rating ECHCG (ECHCG (Barnyardgrass); rate 0.1250 kg/ha): 0.0
- Preemergence herbicidal rating ECHCG (ECHCG (Barnyardgrass); rate 0.2500 kg/ha): 0.5
- Preemergence herbicidal rating ECHCG (ECHCG (Barnyardgrass); rate 0.5000 kg/ha): 2.0
- Preemergence herbicidal rating GALAP (GALAP (Galium); rate 0.0156 kg/ha): 0.0
- Preemergence herbicidal rating GALAP (GALAP (Galium); rate 0.0313 kg/ha): 0.0
- Preemergence herbicidal rating GALAP (GALAP (Galium); rate 0.0625 kg/ha): 0.0
- Preemergence herbicidal rating GALAP (GALAP (Galium); rate 0.1250 kg/ha): 0.0
- Preemergence herbicidal rating GALAP (GALAP (Galium); rate 0.2500 kg/ha): 0.0

SMILES: C=CCN1C(=O)C(CC(=O)O)SC1=Nc1cc(-n2c(=O)cc(C(F)(F)F)n(C)c2=O)c(F)cc1Cl (stereo not shown) [Compound 62, 3-Allyl-2-{{2-chloro-5-[3,6-dihydro-3-methyl-2,6-dioxo-4-(trifluoromethyl)-1(2H)-pyrimidinyl]-4-fluorophenyl}imino}-4-oxo-5-thiazolidineacetic acid]
- Herbicidal rating MOOVA (MOOVA (Monochoria); Rate 0.0313 kg/ha): 4.0
- Herbicidal rating MOOVA (MOOVA (Monochoria); Rate 0.0625 kg/ha): 9.0
- Herbicidal rating MOOVA (MOOVA (Monochoria); Rate 0.1250 kg/ha): 9.0
- Herbicidal rating MOOVA (MOOVA (Monochoria); Rate 0.2500 kg/ha): 9.0
- Postemergence herbicidal rating IPOHE ([1]; Rate 0.0158 kg/ha): 9.0
- Postemergence herbicidal rating IPOHE ([1]; Rate 0.0315 kg/ha): 9.0
- Postemergence herbicidal rating IPOHE ([1]; Rate 0.0630 kg/ha): 9.0
- Postemergence herbicidal rating CHEAL ([2]; Rate 0.0158 kg/ha): 9.0
- Postemergence herbicidal rating CHEAL ([2]; Rate 0.0315 kg/ha): 9.0
- Postemergence herbicidal rating CHEAL ([2]; Rate 0.0630 kg/ha): 9.0
- Preemergence herbicidal rating GLXMAW ([3]; rate 0.0156 kg/ha): 0.0
- Preemergence herbicidal rating GLXMAW ([3]; rate 0.0313 kg/ha): 0.0
- Preemergence herbicidal rating GLXMAW ([3]; rate 0.0625 kg/ha): 1.0
- Preemergence herbicidal rating GLXMAW ([3]; rate 0.1250 kg/ha): 2.0
- Preemergence herbicidal rating GLXMAW ([3]; rate 0.2500 kg/ha): 7.0
- Preemergence herbicidal rating ECHCG (ECHCG (Barnyardgrass); rate 0.0156 kg/ha): 0.0
- Preemergence herbicidal rating ECHCG (ECHCG (Barnyardgrass); rate 0.0313 kg/ha): 0.0
- Preemergence herbicidal rating ECHCG (ECHCG (Barnyardgrass); rate 0.0625 kg/ha): 1.0
- Preemergence herbicidal rating ECHCG (ECHCG (Barnyardgrass); rate 0.1250 kg/ha): 3.0
- Preemergence herbicidal rating ECHCG (ECHCG (Barnyardgrass); rate 0.2500 kg/ha): 7.0
- Preemergence herbicidal rating GALAP (GALAP (Galium); rate 0.0156 kg/ha): 0.0
- Preemergence herbicidal rating GALAP (GALAP (Galium); rate 0.0313 kg/ha): 0.0
- Preemergence herbicidal rating GALAP (GALAP (Galium); rate 0.0625 kg/ha): 0.0
- Preemergence herbicidal rating GALAP (GALAP (Galium); rate 0.1250 kg/ha): 6.0
- Preemergence herbicidal rating GALAP (GALAP (Galium); rate 0.2500 kg/ha): 9.0

SMILES: C=CCN1C(=O)C(CC(=O)OC(C)C)SC1=Nc1cc(-n2c(=O)cc(C(F)(F)F)n(C)c2=O)c(F)cc1Cl (stereo not shown) [Compound 66, Isopropyl 3-allyl-2-{{2-chloro-5-[3,6-dihydro-3-methyl-2,6-dioxo-4-(trifluoromethyl)-1(2H)-pyrimidinyl]-4-fluorophenyl}imino}-4-oxo-5-thiazolidineacetate]
- Herbicidal rating MOOVA (MOOVA (Monochoria); Rate 0.0313 kg/ha): 9.0
- Herbicidal rating MOOVA (MOOVA (Monochoria); Rate 0.0625 kg/ha): 9.0
- Herbicidal rating MOOVA (MOOVA (Monochoria); Rate 0.1250 kg/ha): 9.0
- Herbicidal rating MOOVA (MOOVA (Monochoria); Rate 0.2500 kg/ha): 9.0
- IPOHE herbicidal rating ([1]; rate 0.0158 kg/ha): 9.0
- IPOHE herbicidal rating ([1]; rate 0.0313 kg/ha): 9.0
- IPOHE herbicidal rating ([1]; rate 0.0625 kg/ha): 9.0
- IPOHE herbicidal rating ([1]; rate 0.1250 kg/ha): 9.0
- CHEAL herbicidal rating ([2]; rate 0.0158 kg/ha): 5.0
- CHEAL herbicidal rating ([2]; rate 0.0313 kg/ha): 9.0
- CHEAL herbicidal rating ([2]; rate 0.0625 kg/ha): 9.0
- CHEAL herbicidal rating ([2]; rate 0.1250 kg/ha): 9.0
- Preemergence herbicidal rating GLXMAW ([3]; rate 0.0156 kg/ha): 0.0
- Preemergence herbicidal rating GLXMAW ([3]; rate 0.0313 kg/ha): 0.0
- Preemergence herbicidal rating GLXMAW ([3]; rate 0.0625 kg/ha): 0.5
- Preemergence herbicidal rating GLXMAW ([3]; rate 0.1250 kg/ha): 0.5
- Preemergence herbicidal rating GLXMAW ([3]; rate 0.2500 kg/ha): 4.5
- Preemergence herbicidal rating GLXMAW ([3]; rate 0.5000 kg/ha): 9.0
- Preemergence herbicidal rating ECHCG (ECHCG (Barnyardgrass); rate 0.0156 kg/ha): 0.0
- Preemergence herbicidal rating ECHCG (ECHCG (Barnyardgrass); rate 0.0313 kg/ha): 0.0
- Preemergence herbicidal rating ECHCG (ECHCG (Barnyardgrass); rate 0.0625 kg/ha): 0.5
- Preemergence herbicidal rating ECHCG (ECHCG (Barnyardgrass); rate 0.1250 kg/ha): 0.5
- Preemergence herbicidal rating ECHCG (ECHCG (Barnyardgrass); rate 0.2500 kg/ha): 3.0
- Preemergence herbicidal rating ECHCG (ECHCG (Barnyardgrass); rate 0.5000 kg/ha): 9.0
- Preemergence herbicidal rating GALAP (GALAP (Galium); rate 0.0156 kg/ha): 0.0
- Preemergence herbicidal rating GALAP (GALAP (Galium); rate 0.0313 kg/ha): 0.0
- Preemergence herbicidal rating GALAP (GALAP (Galium); rate 0.0625 kg/ha): 0.0
- Preemergence herbicidal rating GALAP (GALAP (Galium); rate 0.1250 kg/ha): 3.5
- Preemergence herbicidal rating GALAP (GALAP (Galium); rate 0.2500 kg/ha): 8.0
- Preemergence herbicidal rating GALAP (GALAP (Galium); rate 0.5000 kg/ha): 9.0

SMILES: C=CCN1C(=O)C(CC(=O)NOC)SC1=Nc1cc(-n2c(=O)cc(C(F)(F)F)n(C)c2=O)c(F)cc1Cl (stereo not shown) [Compound 85]
- Herbicidal rating MOOVA (MOOVA (Monochoria); Rate 0.0313 kg/ha): 9.0
- Herbicidal rating MOOVA (MOOVA (Monochoria); Rate 0.0625 kg/ha): 9.0
- Herbicidal rating MOOVA (MOOVA (Monochoria); Rate 0.1250 kg/ha): 9.0
- Herbicidal rating MOOVA (MOOVA (Monochoria); Rate 0.2500 kg/ha): 9.0
- IPOHE herbicidal rating ([1]; rate 0.0156 kg/ha): 9.0
- IPOHE herbicidal rating ([1]; rate 0.0313 kg/ha): 9.0
- IPOHE herbicidal rating ([1]; rate 0.0625 kg/ha): 9.0
- IPOHE herbicidal rating ([1]; rate 0.1250 kg/ha): 9.0
- CHEAL herbicidal rating ([2]; rate 0.0156 kg/ha): 2.0
- CHEAL herbicidal rating ([2]; rate 0.0313 kg/ha): 4.0
- CHEAL herbicidal rating ([2]; rate 0.0625 kg/ha): 4.0
- CHEAL herbicidal rating ([2]; rate 0.1250 kg/ha): 9.0
- GLXMAW rating ([3]; 0.0156 kg/ha): 0.0
- GLXMAW rating ([3]; 0.0313 kg/ha): 0.0
- GLXMAW rating ([3]; 0.0625 kg/ha): 0.0
- GLXMAW rating ([3]; 0.1250 kg/ha): 2.0
- GLXMAW rating ([3]; 0.2500 kg/ha): 2.0
- GLXMAW rating ([3]; 0.5000 kg/ha): 9.0
- ECHCG rating (ECHCG (Barnyardgrass); 0.0156 kg/ha): 0.0
- ECHCG rating (ECHCG (Barnyardgrass); 0.0313 kg/ha): 0.0
- ECHCG rating (ECHCG (Barnyardgrass); 0.0625 kg/ha): 0.0
- ECHCG rating (ECHCG (Barnyardgrass); 0.1250 kg/ha): 0.0
- ECHCG rating (ECHCG (Barnyardgrass); 0.2500 kg/ha): 0.0
- ECHCG rating (ECHCG (Barnyardgrass); 0.5000 kg/ha): 4.0
- GALAP rating (GALAP (Galium); 0.0156 kg/ha): 0.0
- GALAP rating (GALAP (Galium); 0.0313 kg/ha): 0.0
- GALAP rating (GALAP (Galium); 0.0625 kg/ha): 0.0
- GALAP rating (GALAP (Galium); 0.1250 kg/ha): 4.0
- GALAP rating (GALAP (Galium); 0.2500 kg/ha): 6.0
- GALAP rating (GALAP (Galium); 0.5000 kg/ha): 9.0
